# Laboratory results from paper PMC2747801 (European journal of pharmaceutical sciences : official …, 2009).
# Read-outs that look alike come from different tables or passages of the source.
# Legend:
# [1] = rat, cited from earlier work
# [2] = cited from earlier work
# [3] = mouse, cited from earlier work
# [4] = male, mouse, pH 7.4; for logPS(obs): in vivo
# [5] = Kd (nonsaturable component) ref Momma et al. 1987
# [6] = Kd (nonsaturable component) ref Smith et al. 1986
# [7] = 5-50uM self-inhibition, test set ref Summerfield et al. 2007
# [8] = PAMPA intrinsic permeability, ref Ruell et al. 2004
# [9] = 5-50uM self-inhibition, training set ref Summerfield et al. 2007
# [10] = test set ref Gratton et al. 1997
# [11] = not saturable ref Parepally et al. 2006
# [12] = PSC833,GF120918 ref Youdim et al. 2004
structure (smiles),measurement,setting,value
NC1(C(=O)O)CCCCC1 [1-aminocyclohexanecarboxylic acid],logPS(obs),[1]; Kd (nonsaturable component) ref Aoyagi et al. 1988,−4.00 mL/g/s
Nc1c(O)cccc1C(=O)CC(N)C(=O)O (centres unmarked) [3-hydroxykynurenine],logPS(obs),[1]; Kd (nonsaturable component) ref Fukui et al. 1991,−4.49 mL/g/s
Cc1c(N2C[C@@H](N)C3(CC3)C2)c(F)c(N)c2c(=O)c(C(=O)O)cn(C3CC3)c12 [HSR-903],logPS(obs),[1]; 20 mM self-inhibition ref Murata et al. 1999,−3.14 mL/g/s
Nc1ccccc1C(=O)C[C@H](N)C(=O)O [L-kynurenine],logPS(obs),[1]; [5],−4.16 mL/g/s
CC(C)C[C@H](N)C(=O)O [L-leucine],logPS(obs),[1]; [6],−4.08 mL/g/s
N[C@@H](Cc1ccccc1)C(=O)O [L-phenylalanine],logPo^PAMPA,,−5.36
same,logPS(obs),[1]; [5],−3.74 mL/g/s
CC(C)[C@H](N)C(=O)O [L-valine],logPS(obs),[1]; [6],−4.41 mL/g/s
Clc1ccc2c(c1)C(N1CCNCC1)=Nc1ccccc1O2 [amoxapine],logPS(obs),[1]; [7],−1.18 mL/g/s
Cc1cc(=O)n(-c2ccccc2)n1C [antipyrine],logPo^PAMPA,[2]; PAMPA,−5.69
CNCC[C@@H](Oc1ccccc1C)c1ccccc1 [atomoxetine],logPS(obs),[1]; [7],−1.39 mL/g/s
CCC12CCN(CC3(O)CC3)C(Cc3ccc(O)cc31)C2(C)C (centres unmarked) [bremazocine],logPo^PAMPA,,−1.49
same,logPS(obs),[3]; in vivo,−1.89 mL/g/s
COc1cc2c(c(OC)c1OC)-c1ccc(OC)c(=O)cc1[C@@H](NC(C)=O)CC2 [colchicine],logPo^PAMPA,,−5.40
same,logPS(obs),[1]; in vivo,−3.24 mL/g/s
CC(C)[C@H](NC(=O)[C@H](CCC(=O)O)NC(=O)[C@H](Cc1ccccc1)NC(=O)[C@@H](C)NC(=O)[C@@H](N)Cc1ccc(O)cc1)C(=O)N[C@H](C(=O)NCC(N)=O)C(C)C [deltorphin II],logPo^PAMPA,,−6.37
same,logPS(obs),[3]; in vivo,−4.36 mL/g/s
COc1ccc([C@@H]2Sc3ccccc3N(CCN(C)C)C(=O)[C@@H]2OC(C)=O)cc1 [diltiazem],logPo^PAMPA,"[2]; PAMPA intrinsic permeability, ref Avdeef et al. 2005",−1.33
O=c1[nH]c2ccccc2n1CCCN1CCC(n2c(=O)[nH]c3cc(Cl)ccc32)CC1 [domperidone],logPS(obs),[4],−2.79 mL/g/s
same,logPo^PAMPA,,−2.78
CN(C)CCC=C1c2ccccc2COc2ccccc21 [doxepin],logPo^PAMPA,[2]; [8],0.44
same,logPS(obs),[1]; [9],−1.31 mL/g/s
CN1C[C@H](C(=O)N[C@]2(C)O[C@@]3(O)[C@@H]4CCCN4C(=O)[C@H](Cc4ccccc4)N3C2=O)C=C2c3cccc4[nH]cc(c34)C[C@H]21 [ergotamine],logPS(obs),[1]; in vivo,−2.06 mL/g/s
OC[C@@H](O)[C@@H](O)CO [erythritol],logPS(obs),[1]; [10],−4.57 mL/g/s
C[C@]12CC[C@@H]3c4ccc(O)cc4CC[C@H]3[C@@H]1CC[C@@H]2O [estradiol],logPo^PAMPA,,−3.08
CCC1(C)CC(=O)NC1=O (centres unmarked) [ethosuximide],logPS(obs),[1]; [7],−2.47 mL/g/s
OCCO [ethylene glycol],logPS(obs),[1]; in vivo,−2.99 mL/g/s
COc1cc([C@@H]2c3cc4c(cc3[C@@H](O[C@@H]3O[C@@H]5CO[C@@H](C)O[C@H]5[C@H](O)[C@H]3O)[C@H]3COC(=O)[C@H]23)OCO4)cc(OC)c1O [etoposide],logPo^PAMPA,,−5.22
same,logPS(obs),"[3]; mdr1a(−/−), footnote x ref Cisternino et al. 2003",−3.91 mL/g/s
OCCN1CCN(CCCN2c3ccccc3Sc3ccc(C(F)(F)F)cc32)CC1 [fluphenazine],logPS(obs),[1]; [7],−1.87 mL/g/s
CC(C(=O)O)c1ccc(-c2ccccc2)c(F)c1 (centres unmarked) [flurbiprofen],logPo^PAMPA,[2]; [8],−1.78
same,logPS(obs),[1]; [11],−1.80 mL/g/s
O=C(CCCN1CCC(O)(c2ccc(Cl)cc2)CC1)c1ccc(F)cc1 [haloperidol],logPo^PAMPA,"[2]; PAMPA intrinsic permeability, ref Avdeef et al. 2006",0.05
OCCOCCN1CCN(C(c2ccccc2)c2ccc(Cl)cc2)CC1 (centres unmarked) [hydroxyzine],logPo^PAMPA,,−1.50
CC(C)Cc1ccc(C(C)C(=O)O)cc1 (centres unmarked) [ibuprofen],logPo^PAMPA,"[2]; PAMPA intrinsic permeability, ref Ruell et al. 2004, Ruell et al. 2003",−2.11
COc1ccc2c(c1)c(CC(=O)O)c(C)n2C(=O)c1ccc(Cl)cc1 [indomethacin],logPo^PAMPA,"[2]; PAMPA intrinsic permeability, ref Avdeef et al. 2004, Ruell et al. 2004",−1.65
same,logPS(obs),[1]; [11],−2.19 mL/g/s
Nc1nnc(-c2cccc(Cl)c2Cl)c(N)n1 [lamotrigine],logPS(obs),[1]; [7],−2.67 mL/g/s
CN(C)C(=O)C(CCN1CCC(O)(c2ccc(Cl)cc2)CC1)(c1ccccc1)c1ccccc1 [loperamide],logPo^PAMPA,,0.15
OC[C@@H](O)[C@@H](O)[C@H](O)[C@H](O)CO [mannitol],logPS(obs),[1]; [10],−5.01 mL/g/s
CNCCCC12CCC(c3ccccc31)c1ccccc12 [maprotiline],logPo^PAMPA,[2]; [8],1.99
same,logPS(obs),[1]; [9],−1.37 mL/g/s
N[C@@H](Cc1ccc(N(CCCl)CCCl)cc1)C(=O)O [melphalin],logPS(obs),[1]; in vivo,−3.28 mL/g/s
CCCC(C)(COC(N)=O)COC(N)=O [meprobamate],logPS(obs),[1]; [7],−3.09 mL/g/s
CN1CCCCC1CCN1c2ccccc2Sc2ccc([S+](C)[O-])cc21 (centres unmarked) [mesoridazine],logPS(obs),[1]; [7],−1.81 mL/g/s
CCC(=O)C(CC(C)N(C)C)(c1ccccc1)c1ccccc1 (centres unmarked) [methadone],logPo^PAMPA,,0.08
Cc1ncc2n1-c1ccc(Cl)cc1C(c1ccccc1F)=NC2 [midazolam],logPS(obs),[1]; in vivo,−1.17 mL/g/s
CN1CCN2c3ncccc3Cc3ccccc3C2C1 (centres unmarked) [mirtazapine],logPS(obs),[1]; [7],−1.39 mL/g/s
O=C1C[C@@H](c2ccc(O)cc2)Oc2cc(O)cc(O)c21 [naringenin],logPo^PAMPA,,−3.71
same,logPS(obs),[1]; [12],−2.60 mL/g/s
CCCN1C[C@H](CSC)C[C@@H]2c3cccc4[nH]cc(c34)C[C@H]21 [pergolide],logPS(obs),[1]; [7],−1.00 mL/g/s
OCCN1CCN(CCCN2c3ccccc3Sc3ccc(Cl)cc32)CC1 [perphenazine],logPo^PAMPA,,0.81
same,logPS(obs),[1]; [9],−1.27 mL/g/s
NNCCc1ccccc1 [phenelzine],logPS(obs),[1]; [7],−2.67 mL/g/s
COc1cc2nc(N3CCN(C(=O)c4ccco4)CC3)nc(N)c2cc1OC [prazosin],logPo^PAMPA,[2]; [8],−2.58
O=c1c(O)c(-c2ccc(O)c(O)c2)oc2cc(O)cc(O)c12 [quercetin],logPo^PAMPA,,−4.77
same,logPS(obs),[1]; [12],−3.50 mL/g/s
OCCOCCN1CCN(C2=Nc3ccccc3Sc3ccccc32)CC1 [quetiapine],logPo^PAMPA,,−1.85
same,logPS(obs),[1]; [9],−1.33 mL/g/s
Cc1nc2n(c(=O)c1CCN1CCC(c3noc4cc(F)ccc34)CC1)CCCC2 [risperidone],logPo^PAMPA,,−2.01
CC(C)c1nc(CN(C)C(=O)N[C@H](C(=O)N[C@@H](Cc2ccccc2)C[C@H](O)[C@H](Cc2ccccc2)NC(=O)OCc2cncs2)C(C)C)cs1 [ritonavir],logPS(obs),[4],−2.59 mL/g/s
same,Pgp Mutant Kin,[4],15 mL/100g/min
same,logPo^PAMPA,,−1.68
CN(C)CCc1c[nH]c2ccc(Cn3cncn3)cc12 [rizatriptan],logPS(obs),[1]; [7],−3.76 mL/g/s
O=C(O)c1ccccc1O [salicylic acid],logPo^PAMPA,"[2]; PAMPA intrinsic permeability, ref Ruell et al. 2003",−2.64
OC[C@H]1O[C@@](CO)(O[C@H]2O[C@H](CO)[C@@H](O)[C@H](O)[C@H]2O)[C@@H](O)[C@@H]1O [sucrose],logPS(obs),[1]; [10],−5.30 mL/g/s
CNS(=O)(=O)Cc1ccc2[nH]cc(CCN(C)C)c2c1 [sumatriptan],logPo^PAMPA,"[2]; PAMPA intrinsic permeability, ref Avdeef 2005",−4.18
same,logPS(obs),[1]; [9],−4.60 mL/g/s
C[C@]12CC[C@H]3[C@@H](CCC4=CC(=O)CC[C@@]43C)[C@@H]1CC[C@@H]2O [testosterone],logPo^PAMPA,,−2.83
CSc1ccc2c(c1)N(CCC1CCCCN1C)c1ccccc1S2 (centres unmarked) [thioridazine],logPo^PAMPA,,1.81
same,logPS(obs),[1]; [9],−1.37 mL/g/s
NC(N)=S [thiourea],logPS(obs),[1]; [10],−3.36 mL/g/s
Cc1ccsc1C(=CCCN1CCC[C@@H](C(=O)O)C1)c1sccc1C [tiagabine],logPS(obs),[1]; [9],−2.46 mL/g/s
O=c1n(CCCN2CCN(c3cccc(Cl)c3)CC2)nc2ccccn12 [trazodone],logPS(obs),[1]; [7],−1.47 mL/g/s
CN1CCN(CCCN2c3ccccc3Sc3ccc(C(F)(F)F)cc32)CC1 [trifluoperazine],logPS(obs),[1]; [7],−1.88 mL/g/s
COc1ccc(C(CN(C)C)C2(O)CCCCC2)cc1 (centres unmarked) [venlafaxine],logPS(obs),[1]; in vivo,−1.98 mL/g/s
CC(=O)CC(c1ccccc1)c1c(O)c2ccccc2oc1=O (centres unmarked) [warfarin],logPS(obs),[1]; in vivo,−1.99 mL/g/s
same,logPS(obs),[3]; in vivo,−2.10 mL/g/s
CCN(C(C)=O)c1cccc(-c2ccnc3c(C#N)cnn23)c1 [zaleplon],logPS(obs),[1]; in vivo,−2.25 mL/g/s
O=C1Cc2cc(CCN3CCN(c4nsc5ccccc45)CC3)c(Cl)cc2N1 [ziprasidone],logPS(obs),[1]; [7],−1.73 mL/g/s
